For this series the following is noted: 6 days at 80° C. The method, then: Nitrogen of 99% purity (vol/vol) purity was used as an inert gas. The samples were stored at 80° C. for 6 days, and then the assay of impurities was determined by High Performance Liquid Chromatography.
The oxygen content in the vials was determined by gas chromatography with a mass spectrometric detector (GC/MS).
The degradation products were determined by […] Agilent Technologies (Waldbronn, Germany) model HP 1100. Chromatograms were recorded by a UV detector at 250 nm. The column Chromolit Performance RP-18e 100×4.6 mm (Merck, Darmstadt, Germany) and the gradient of mobile phase A: 20 mM ammonium acetate pH 4.0, 5% (v/v) tetrahydrofuran and 25% (v/v) acetonitrile and the gradient of mobile phase B: 20 mM ammonium acetate pH 4.0, 5% (v/v) tetrahydrofuran and 70 (v/v) acetonitrile were used. The composition of the mobile phase was changed so that initially and to minute 2 there was 25% of mobile phase B (75% of mobile phase A), from minute 2 to minute 4.7 the composition of the mobile phase changed linearly to 100% mobile phase B and it remained such to the end of the analysis at minute 5.5. Flow rate of the mobile phase was 7 ml/min. […] The samples of atorvastatin calcium were dissolved in the solvent 200 mM Tris p H 7, 40% (v/v) acetonitrile of the concentration 0.5 mg/ml.

Setting [1] is: oxygen content in atmosphere 0.6 %.
Setting [2] is: oxygen content in atmosphere 2.8 %, hemi calcium salt.
The mark [3] stands for this setting: oxygen content in atmosphere 12.2 %, hemi calcium salt.
Where [4] appears, read: oxygen content in atmosphere 21.3 %, hemi calcium salt.

Where two headings read alike, the source gives them in different places.

As to `CC(C)c1c(C(=O)Nc2ccccc2)c(-c2ccccc2)c(-c2ccc(F)cc2)n1CC[C@@H](O)C[C@@H](O)CC(=O)O.CC(C)c1c(C(=O)Nc2ccccc2)c(-c2ccccc2)c(-c2ccc(F)cc2)n1CC[C@@H](O)C[C@@H](O)CC(=O)O.CC(C)c1c(C(=O)Nc2ccccc2)c(-c2ccccc2)c(-c2ccc(F)cc2)n1CC[C@@H](O)C[C@@H](O)CC(=O)[O-].CC(C)c1c(C(=O)Nc2ccccc2)c(-c2ccccc2)c(-c2ccc(F)cc2)n1CC[C@@H](O)C[C@@H](O)CC(=O)[O-].[Ca+2]` (relative stereo) [Amorphous atorvastatin calcium, (R—(R*, R*))-2-(4-fluorophenyl)-β,δ-dihydroxy-5-(1-methylethyl)-3-phenyl-4((phenylamino)carbonyl)-1H-pyrrole-1-heptanoic acid hemi calcium salt], the “Increase in the assay of degradation products in % in reference to starting active substance” value under setting [1] worked out at 0%, the “Increase in the assay of degradation products in % in reference to starting active substance” value under setting [2] stood at 0.13%, the “Increase in the assay of degradation products in % in reference to starting active substance” value under setting [3] stood at 0.49% and the “Increase in the assay of degradation products in % in reference to starting active substance” value under setting [4] came to 0.89%.
Take `CC(C)c1c(C(=O)Nc2ccccc2)c(-c2ccccc2)c(-c2ccc(F)cc2)n1CC[C@@H](O)C[C@@H](O)CC(=O)O.CC(C)c1c(C(=O)Nc2ccccc2)c(-c2ccccc2)c(-c2ccc(F)cc2)n1CC[C@@H](O)C[C@@H](O)CC(=O)O.CC(C)c1c(C(=O)Nc2ccccc2)c(-c2ccccc2)c(-c2ccc(F)cc2)n1CC[C@@H](O)C[C@@H](O)CC(=O)[O-].CC(C)c1c(C(=O)Nc2ccccc2)c(-c2ccccc2)c(-c2ccc(F)cc2)n1CC[C@@H](O)C[C@@H](O)CC(=O)[O-].[Ca+2]` (relative stereo) [Crystalline atorvastatin calcium, (R—(R*, R*))-2-(4-fluorophenyl)-β,δ-dihydroxy-5-(1-methylethyl)-3-phenyl-4((phenylamino)carbonyl)-1H-pyrrole-1-heptanoic acid hemi calcium salt]: the “Increase in the assay of degradation products in % in reference to starting active substance” value reads like this: under setting [1], 0%; under setting [2], 0%; under setting [3], 0.02%; under setting [4], 0.05%.

The record behind these values is patent US20090012150A1, “Stablized Pharmaceutical Composition Comprising an Amorphous Active Substance” (priority 2002, published 2009).
